One assay has as its system A. baumannii ATCC19606. Description: Outer membrane permeabilization (NPN uptake) assay. Type of assay: cell-based, Acinetobacter baumannii. To be noted: peptides at MIC, compared to untreated control and polymyxin B. The method, then: FIG. 3. Synergy, resistance development and mechanism of action studies of encrypted peptides. […] (FIG. 3B) Evolution of resistance by A. baumannii to encrypted peptides derived from the CUB domain (red) or polymyxin B (gray) after 30 days of serial passaging in liquid nutrient broth. Peptides and antibiotics were used at sub-inhibitory concentrations. Cells were passaged every 48 h. […] (FIG. 3D) Cytoplasmic membrane depolarization effects of the encrypted peptides against A. baumannii. (FIG. 3E) NPN assays showing the effect of encrypted peptides derived from the CUB domain and natriuretic peptide on permeabilization of the outer membrane of A. baumannii.
In order to investigate the mode of action of encrypted peptides against bacterial cells, assays were performed to study their effects on the bacterial membrane. First, the ability of encrypted peptides to disrupt and depolarize the bacterial cytoplasmic membrane was assessed […]. 3,3′-dipropylthiadicarbocyanine iodide [DiSC3(5)] was used, a potentiometric fluorophore that accumulates and aggregates in the cytoplasmic membrane, quenching its fluorescence. Upon imbalances of the cytoplasmic membrane transmembrane potential, the fluorophore migrates to the cytoplasm or the outer environment, generating fluorescence. […]
Methods: Membrane depolarization assays. The cytoplasmic membrane depolarization activity of the peptides was determined by measurements of fluorescence of the membrane potential-sensitive dye, DiSC3(5). […] Thereafter, the cells (100 μL) were incubated for 15 min with 20 nmol L^−1 of DiSC3(5) until a stable reduction of fluorescence was achieved, indicating the incorporation of the dye into the bacterial membrane. Membrane depolarization was then monitored by observing the change in the fluorescence emission intensity of the membrane potential-sensitive dye, DiSC3(5) (λex=622 nm, λem=670 nm), after the addition of peptides (100 μL solution at MIC values). […] The membrane permeability of the peptides was determined by using the N-phenyl-1-napthylamine (NPN) uptake assay. […]

Another assay relates to P. aeruginosa PAO1. Description: Skin abscess infection mouse model. Type of assay: in vivo, Pseudomonas aeruginosa. To be noted: for anti-infective activity (FIG. 4B): 25 μmol L^−1, P. aeruginosa PAO1; for reduction of bacterial load / bacterial counts: mice, single dose 25 μmol L^−1 to infected area, P. aeruginosa. The text has this: FIG. 4. Anti-infective activity and synergistic interactions of encrypted peptides in vivo. (FIG. 4A) Schematic of the skin abscess mouse model used to assess the anti-infective activity of selected encrypted peptides from plasma proteins. […] (FIG. 4C) Mouse weight was monitored throughout the experiment (2 days) to rule out potential toxic effects of the encrypted peptides. (FIG. 4D) Schematic of the neutropenic thigh infection mouse model used to assess the anti-infective activity of selected encrypted peptides from plasma proteins. […] (FIG. 4F) Mouse weight was monitored throughout the experiment (8 days) to rule out potential toxic effects of the encrypted peptides.
To test whether the peptides retain their antimicrobial activity in a complex living system, their properties in two mouse models were assessed. […] Since these peptides are mostly found in plasma, a relevant skin abscess mouse model was used to test their anti-infective activity (FIG. 4A). Mice were infected with bacterial loads of 10^5 and 10^6 cells in 20 μL of the clinically relevant Gram-negative pathogens P. aeruginosa and A. baumannii, respectively (FIG. 4B). […] In order to validate the synergistic effects obtained in vitro (FIG. 3D and FIG. 9), infected mice were treated with combinations of encrypted peptides (FIG. 4B). […] No damage or deleterious effects exerted by the peptides were detected in the mice in any of our experiments.
Methods: Skin abscess infection mouse model. A. baumannii ATCC19606 and P. aeruginosa strain PAO1 were used to infect the murine skin. Briefly, bacteria were grown in tryptic soy broth (TSB) medium. Subsequently, cells were washed twice with sterile PBS (pH 7.4, 13,000 rpm for 1 min), and resuspended to a final concentration of 1×10^5 and 1×10^6 CFU/20 μL for A. baumannii and P. aeruginosa, respectively. Female CD-1 mice (six-weeks old) were anesthetized with isoflurane and had their backs shaved and a superficial linear skin abrasion was made with a needle in order to damage the stratum corneum and upper-layer of the epidermis. An aliquot of 20 μL containing the bacterial load in PBS was inoculated over each defined area containing the scratch with a pipette tip. […] Animals were euthanized and the area of scarified skin was excised two- and four-days post-infection, homogenized using a bead beater for 20 minutes (25 Hz), and 10-fold serially diluted for CFU quantification. […] Prior to each injection, mice were anesthetized with isoflurane and monitored (respiratory rate and pedal reflexes). Next, we monitored the formation of the abscess and euthanized the mice. The infected area was excised three-days post-infection, homogenized using a bead beater for 20 min (25 Hz), and 10-fold serially diluted for CFU quantification. […]

Ends that are not written are not given here.

For the sequence SKEMFPRSFIKLLRSKVSRFLRPYK [SCUB1-SKE25], in the assay with A. baumannii ATCC19606, the “outer membrane permeabilization (NPN fluorescence)” value is listed as “increased fluorescence”. Moreover, in the assay with P. aeruginosa PAO1, the “anti-infective activity (FIG. 4B)” value is on record as “inhibitory activity” and the “reduction of bacterial load / bacterial counts” value is on record as 3 orders of magnitude.

For the sequence MLPKSFIKLLRSKVSSFLRPYK [SCUB3-MLP22], the “outer membrane permeabilization (NPN fluorescence)” value with A. baumannii ATCC19606 was “increased fluorescence”. Further, in the assay on P. aeruginosa PAO1, the “anti-infective activity (FIG. 4B)” value is “inhibitory activity” and the “reduction of bacterial load / bacterial counts” value was 3 orders of magnitude.

The values are drawn from patent US20240194290A1, “HIDDEN ANTIBIOTICS IN THE HUMAN PROTEOME” (THE TRUSTEES OF THE UNIVERSITY OF PENNSYLVANIA, priority 2021, published 2024).
